Experimental data reported in patent US10214492B2, “Heterocyclic inhibitors of MCT4” (Vettore, LLC, priority 2016, dated 2019).

Legend:
MCT4 = MCT4 (Homo sapiens (Human), UniProt O15427); test: Assay 3: MCT4-mediated lactate transport in MDA-MB-231 breast cancer cells; format: cell-based; conditions: MDA-MB-231 cells; lactate transport
Protocol: (§1) 10 μL of a 30 mM DMSO stock of BCECF-AM ester (Life Technologies) is added and the cells are incubated at 37° C. for 5 min. The cells are pelleted (300 g, 5 min), washed once with 1 mL Tyrode's Solution, pH 7.4, re-pelleted (300 g, 5 min), and resuspended in 1 mL Tyrode's Solution, pH 7.4.
MCT4 activity may be assessed by monitoring the intracellular pH change that accompanies lactate/proton symport, using the pH-sensitive fluorescent dye 2′,7′-bis-(carboxyethyl)-5(6)-carboxyfluorescein (BCECF), in a manner similar to that previously reported for MCT1 and MCT4. The following is an exemplary procedure for assaying MCT4 activity of the compounds of Formula (I).

MCT1 = MCT1 (Homo sapiens (Human), UniProt P53985); test: Assay 4: MCT1-mediated lactate transport in BT20 breast cancer cells; format: cell-based; conditions: Table 27
Protocol: as §1
Assay 4: MCT1-Mediated Lactate Transport in BT20 Breast Cancer Cells.
Preparation of BCECF loaded cells are as described for Assay 1. Lactate transport assay is as described for Assay 1, except 10 mM L-lactate (rather than 50 mM) is added.

Chain of MCT4 (O15427 whole entry, looked up): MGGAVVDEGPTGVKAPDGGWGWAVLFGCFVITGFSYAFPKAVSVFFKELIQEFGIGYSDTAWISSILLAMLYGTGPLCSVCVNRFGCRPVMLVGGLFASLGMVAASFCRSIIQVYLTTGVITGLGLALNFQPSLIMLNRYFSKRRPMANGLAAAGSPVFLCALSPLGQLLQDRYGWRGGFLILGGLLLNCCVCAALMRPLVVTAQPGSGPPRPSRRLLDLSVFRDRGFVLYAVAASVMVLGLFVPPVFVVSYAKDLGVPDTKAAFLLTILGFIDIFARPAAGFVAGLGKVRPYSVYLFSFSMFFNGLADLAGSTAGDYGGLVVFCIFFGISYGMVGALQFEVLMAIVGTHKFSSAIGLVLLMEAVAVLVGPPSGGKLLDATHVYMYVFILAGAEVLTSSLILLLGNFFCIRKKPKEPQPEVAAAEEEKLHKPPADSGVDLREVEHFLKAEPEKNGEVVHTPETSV
Chain of MCT4 (P35613 whole entry partner, looked up): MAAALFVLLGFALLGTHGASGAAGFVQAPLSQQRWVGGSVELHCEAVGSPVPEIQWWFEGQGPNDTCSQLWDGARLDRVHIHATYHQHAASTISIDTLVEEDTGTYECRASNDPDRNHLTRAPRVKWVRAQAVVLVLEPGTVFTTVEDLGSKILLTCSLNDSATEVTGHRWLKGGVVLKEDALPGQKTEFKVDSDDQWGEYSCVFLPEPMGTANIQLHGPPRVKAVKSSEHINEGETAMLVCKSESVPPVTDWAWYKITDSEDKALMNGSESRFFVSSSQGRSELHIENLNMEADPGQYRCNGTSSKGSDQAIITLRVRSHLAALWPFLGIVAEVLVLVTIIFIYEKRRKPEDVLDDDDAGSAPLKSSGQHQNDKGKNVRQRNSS
Chain of MCT1 (P53985 whole entry): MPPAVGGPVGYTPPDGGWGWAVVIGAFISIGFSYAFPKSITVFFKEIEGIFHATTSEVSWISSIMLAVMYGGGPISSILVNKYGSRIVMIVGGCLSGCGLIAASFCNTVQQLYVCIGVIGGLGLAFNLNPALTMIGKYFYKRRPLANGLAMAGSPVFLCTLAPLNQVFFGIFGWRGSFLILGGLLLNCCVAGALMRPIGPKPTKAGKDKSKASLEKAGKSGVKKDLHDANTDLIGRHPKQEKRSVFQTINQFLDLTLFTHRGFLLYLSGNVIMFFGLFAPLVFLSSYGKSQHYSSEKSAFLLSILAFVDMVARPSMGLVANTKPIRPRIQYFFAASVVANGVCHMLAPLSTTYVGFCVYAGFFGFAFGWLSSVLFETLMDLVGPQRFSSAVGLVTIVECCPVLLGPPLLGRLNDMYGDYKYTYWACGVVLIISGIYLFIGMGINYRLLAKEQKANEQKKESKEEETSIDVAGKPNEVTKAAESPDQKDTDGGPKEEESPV
Chain of MCT1 (P35613 140-385 partner): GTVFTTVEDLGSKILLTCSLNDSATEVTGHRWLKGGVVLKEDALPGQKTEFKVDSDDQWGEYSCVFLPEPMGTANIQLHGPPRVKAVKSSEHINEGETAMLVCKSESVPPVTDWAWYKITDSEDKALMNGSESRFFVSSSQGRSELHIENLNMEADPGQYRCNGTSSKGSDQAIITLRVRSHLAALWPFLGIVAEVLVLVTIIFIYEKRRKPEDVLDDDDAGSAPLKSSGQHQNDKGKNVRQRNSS

SMILES	IC50 (MCT4) [nM]	IC50 (MCT1) [nM]
COc1cccc(-c2cc(COC(C)(C)C(=O)O)nn2CC(C)C)c1 [Example 137, 2-([5-(3-Methoxyphenyl)-1-(2-methylpropyl)-1H-pyrazol-3-yl]methoxy)-2-methylpropanoic acid]	1400	> 100000
COc1cccc(-c2cc(COC(C)(C)C(=O)O)nn2CC2CCOCC2)c1 [Example 138, 2-([5-(3-Methoxyphenyl)-1-([oxan-4-yl]-methyl)-1H-pyrazol-3-yl]methoxy)-2-methylpropanoic acid]	535	> 100000
COc1cccc(-c2cc(COC(C)(C)C(=O)O)nn2Cc2ncccc2Cl)c1 [Example 139, 2-([1-[(3-Chloropyridin-2-yl)methyl]-5-(3-methoxyphenyl)-1H-pyrazol-3-yl)methoxy)-2-methylpropanoic acid]	9700	> 100000
CCOc1ccccc1Cn1nc(COC(C)(C)C(=O)O)cc1-c1cccc(OC)c1 [Example 141, 2-([1-[(2-Ethoxyphenyl)methyl]-5-(3-methoxyphenyl)-1H-pyrazol-3-yl]methoxy)-2-methylpropanoic acid]	6.7	33000
COc1cccc(-c2cc(COC(C)(C)C(=O)O)nn2Cc2ccccc2OC2CC2)c1 [Example 142, 2-([1-[(2-Cyclopropoxyphenyl)methyl]-5-(3-methoxyphenyl)-1H-pyrazol-3-yl]methoxy)-2-methylpropanoic acid]	6.3	26000
COc1cccc(-c2cc(/C=C/C(C)(C)C(=O)O)nn2Cc2ccccc2Cl)c1 [Example 143, (3E)-4-[1-[(2-Chlorophenyl)methyl]-5-(3-methoxyphenyl)-1H-pyrazol-3-yl]-2,2-dimethylbut-3-enoic Acid]	195	3300
COc1cccc(-c2cc(CCC(C)(C)C(=O)O)nn2Cc2ccccc2Cl)c1 [Example 144, 4-[1-[(2-chlorophenyl)methyl]-5-(3-methoxyphenyl)-1H-pyrazol-3-yl]-2,2-dimethylbutanoic Acid]	127	2400
CCn1ncc2ccc(-c3cc(COC(C)(C)C(=O)O)nn3Cc3ccccc3Cl)cc21 [Example 151, Sodium 2-([1-[(2-chlorophenyl)methyl]-5-(1-ethyl-1H-indazol-6-yl)-1H-pyrazol-3-yl]methoxy)-2-methylpropanoate]	3.6	70000
CC(C)(OCc1cc(-c2cccc(OC3CC3)c2)n(-c2cccc3cn[nH]c23)n1)C(=O)O [Example 152, 2-([5-(3-Cyclopropoxyphenyl)-1-(1H-indazol-7-yl)-1H-pyrazol-3-yl]methoxy)-2-methylpropanoic Acid]	80	> 100000
CC(C)(OCc1cc(-c2cccc(OC3CC3)c2)n(-c2cccc3[nH]ncc23)n1)C(=O)O [Example 153, 2-([5-(3-Cyclopropoxyphenyl)-1-(1H-indazol-4-yl)-1H-pyrazol-3-yl]methoxy)-2-methylpropanoic Acid]	830	44000
Cc1n[nH]c2cccc(-n3nc(COC(C)(C)C(=O)O)cc3-c3cccc(OC4CC4)c3)c12 [Example 154, 2-([5-(3-cyclopropoxyphenyl)-1-(3-methyl-1H-indazol-4-yl)-1H-pyrazol-3-yl]methoxy)-2-methylpropanoic Acid]	240	> 100000
CC(C)(OCc1cc(-c2ccccn2)n(-c2ccccc2Cl)n1)C(=O)O [Example 156, 2-([1-(2-Chlorophenyl)-5-(pyridin-2-yl)-1H-pyrazol-3-yl]methoxy)-2-methylpropanoic acid]	1400	> 100000
CC(C)(OCc1cc(-c2cccc(OCC3COC3)c2)n(-c2ccccc2F)n1)C(=O)O [Example 158, 2-([1-(2-Fluorophenyl)-5-[3-(oxetan-3-yl-methoxy)phenyl]-1H-pyrazol-3-yl]-methoxy)-2-methylpropanoic acid]	580	> 100000
CC(C)(OCc1cc(-c2cccc(OC3CCC3)c2)n(-c2ccccc2F)n1)C(=O)O [Example 159, 2-([5-(3-Cyclobutoxyphenyl)-1-(2-fluoro-phenyl)-1H-pyrazol-3-yl]methoxy)-2-methylpropanoic acid]	11	> 100000
CC(C)(OCc1cc(-c2cccc(OC3COC3)c2)n(-c2ccccc2F)n1)C(=O)O [Example 160, 2-([1-(2-Fluorophenyl)-5-[3-(oxetan-3-yl-oxy)phenyl]-1H-pyrazol-3-yl]methoxy)-2-methylpropanoic acid]	270	> 100000
CCOc1cc(OCC)cc(-c2cc(COC(C)(C)C(=O)O)nn2-c2ccccc2C)c1 [Example 162, 2-([5-(3,5-Diethoxyphenyl)-1-(2-methyl-phenyl)-1H-pyrazol-3-yl]methoxy)-2-methylpropanoic acid]	6.4	34000

Further lines, results first:

IC50 (MCT4) [nM]	IC50 (MCT1) [nM]	SMILES
4.4	73000	CCn1ncc2ccc(-c3cc(COC(C)(C)C(=O)O)nn3-c3ccccc3N(C)C)cc21 [Example 163, 2-([1-[2-(dimethylamino)phenyl]-5-(1-ethyl-1H-indazol-6-yl)-1Hpyrazol-3-yl]-methoxy)-2-methylpropanoic acid]
43	> 100000	CCOc1ccccc1-n1nc(COC(C)(C)C(=O)O)cc1-c1cc(OC)cc(OC)c1 [Example 164, 2-([5-(3,5-Dimethoxyphenyl)-1-(2-ethoxy-phenyl)-1H-pyrazol-3-yl]methoxy)-2-methylpropanoic acid]
85	99000	CCn1ncc2ccc(-c3cc(COC(C)(C)C(=O)O)nn3-c3cccc4cnn(C)c34)cc21 [Example 165, 2-([5-(1-Ethyl-1H-indazol-6-yl)-1-(1-methyl-1H-indazol-7-yl)-1H-pyrazol-3-yl]-methoxy)-2-methylpropanoic acid]
12.2	68000	Cn1ncc2cccc(-n3nc(COC(C)(C)C(=O)O)cc3-c3cccc(OCC4CC4)c3)c21 [Example 169, 2-([5-[3-(Cyclopropylmethoxy)phenyl]-1-(1-methyl-1H-indazol-7-yl)-1H-pyrazol-3-yl]-methoxy)-2-methylpropanoic acid]
12	32000	CCOc1cc(OCC)cc(-c2cc(COC(C)(C)C(=O)O)nn2-c2cccc3cnn(C)c23)c1 [Example 171, 2-([5-(3,5-Diethoxyphenyl)-1-(1-methyl-1H-indazol-7-yl)-1H-pyiazol-3-yl]methoxy)-2-methylpropanoic acid]
0.59	33000	CCn1ncc2cccc(-n3nc(COC(C)(C)C(=O)O)cc3-c3cccc(OCC(C)(C)C)c3)c21 [Example 172, 2-([5-(3-(2,2-Dimethylpropoxy)phenyl]-1-(1-ethyl-1H-indazol-7-yl)-1H-pyrazol-3-yl]-methoxy)-2-methylpropanoic acid]
230	66000	CC(C)(OCc1cc(-c2cccc(OCC3COC3)c2)n(-c2ccccc2Cl)n1)C(=O)O [Example 173, 2-([1-(2-Chlorophenyl)-5-[3-(oxetan-3-yl-methoxy)phenyl)-1H-pyraz.ol-3-yl]-methoxy)-2-methylpropanoic acid]
101	> 100000	Cn1ncc2ccc(-c3cc(COC(C)(C)C(=O)O)nn3-c3ccccc3Cl)cc21 [Example 174, 2-([1-(2-Chlorophenyl)-5-(1-methyl-1H-indazol-6-yl)-1H-pyrazol-3-yl]methoxy)-2-methylpropanoic acid]
